Laboratory results reported in patent US8017125B2, “Copolymers for suppression of autoimmune diseases, and methods of use” (President and Fellows of Harvard College, priority 2001, dated 2011).
Values belong to the substance of their own block, whether it stands above or below them.

Experiments:
HLA-DR-2 molecules = molecular target: T1, HLA-DR-2 molecules (Homo sapiens, UniProt P01903+P01911); assay: Competitive binding of biotinylated MBP 86-100 to HLA-DR-2 molecules; settings: biotinylated MBP 86-100 0.13 μM, 40 hr at 37° C.
T1 construct: Recombinant water-soluble HLA-DR-2 molecules were incubated with biotinylated MBP 86-100; Soluble HLA-DR-2 molecules were expressed in Drosophila S2 cells; made in house; host or cells: Drosophila S2 cells
Protocol: Protein expression and purification. Soluble HLA-DR-2 molecules were expressed in Drosophila S2 cells and purified as described (Kalandadze, A. et al. 1996. J. Biol. Chem. 271:20156-20162). Cells were grown at 26° C. in roller bottles in ExCell 401 medium (JRH Biosciences, Lenexa, Kans.) supplemented with 0-5% fetal bovine serum (Sigma Chemicals, St. Louis, Mo.). Cells were harvested 4-5 days after induction by 1 mM CuSO4. Supernatant from harvested cells was sequentially passed through Protein A, Protein G and Protein A-LB3.1 columns, followed by elution of the bound HLA-DR with 50 mM 3-[cyclohexylamino]-1-propanesulfonic acid (CAPS), pH 11.5, and neutralized with 200 mM phosphate (pH 6.0). Proteins were concentrated on a Centriprep 10 membrane (Amicon, Beverly, Mass.).
(A). Solutions. The solutions used in this assay are the following: binding buffer is 20 mM 2-[N-morpholino]ethanesulfonic acid (MES), 140 mM NaCl, 0.05% NaN3, pH 5.0, unless otherwise specified; PBS is 150 mM sodium chloride, 7.5 mM sodium phosphate, dibasic, 2.5 mM sodium phosphate, monobasic, pH 7.2; TBS is 137 mM sodium chloride, 25 mM Tris pH 8.0, 2.7 mM potassium chloride; TTBS is TBS plus 0.05% Tween-20. (B). […] Bound peptide-biotin was detected using streptavidin-conjugated alkaline phosphatase, as follows. […] Absorbance at 410 nm was monitored by a microplate reader (model MR4000; Dynatech, Chantilly, Va.).

[1] = test system: EAE induced by PLP 139-151 in SJL/J mice; assay: Suppression of EAE induced by PLP 139-151 peptide; type: in vivo; settings: for Maximum mean score: clinical scale 1-5; for Incidence (mice with clinical signs of EAE / total immunized mice): Example 10: SJL/J mice co-injected with 50 μg PLP 139-151 and 500 μg copolymer, observed 70 days
Protocol: (§1) Induction and suppression of EAE. […] Mice were scored daily for clinical signs of EAE on a scale 1-5, according to the severity of disease symptoms as previously described (Santambrogio, L. et al. 1993. J. Immunol. 151: 1116). For determination of suppression of EAE, each copolymer (500 μg/mouse) was mixed and injected with the encephalitogenic emulsion as described above.
To find out whether random copolymers provided herein might affect development of chronic-relapsing EAE, mice were injected subcutaneously with 50 μg of PLP 139-151 (SEQ ID NO: 4; the encephalitogenic epitope in the SJL/J strain) alone, or with 50 μg of PLP 139-151 (SEQ ID NO: 4) and 500 μg of the copolymer. Mice were examined on a daily basis for 90 days after the induction of the disease.
In vivo experiments were carried out to determine whether the Y- and F-containing 50-mer random copolymers would affect the clinical course of EAE in SJL/J mice. As in Examples above, the protocol for co-immunization was subcutaneous injection of SJL/J mice with, in this example, the encephalitogenic epitope PLP 139-151 (SEQ ID NO: 4; 50 μg) and a copolymer preparation (500 μg). Following disease induction, mice were observed daily for appearance of typical signs of EAE, during a period of 70 days.

[2] = test system: H-2s-restricted PLP 139-151-specific T cell hybridoma hPLP/1; assay: Antigen presentation assay, hPLP/1 hybridoma; type: cell-based, mouse; settings: SJL/J splenocytes, PLP 139-151 24 μM, copolymer 28 μM (FIG. 2B)
Description: (§2) Antigen presentation assays.

[3] = test system: EAE induced by WSCH in SJL/J mice; assay: Suppression of EAE induced by WSCH; type: in vivo; settings: for Incidence (mice with clinical signs of EAE / total immunized mice): SJL/J mice coinjected s.c. with 500 μg WSCH and 500 μg copolymer, observed 40 days
Protocol: as §1
To find out whether VEAK and FEAK random copolymers affected the clinical course of EAE in SJL/J mice, a number of in vivo experiments were performed. The protocol for disease induction was subcutaneous injection to co-immunize with both WSCH (500 μg) and each copolymer (500 μg), similar to the protocol of previous studies of suppression of EAE by Cop1 (Teitelbaum, D. et al. 1996. J. Neuroimmunol. 64:209-217). Following disease induction, mice were observed daily for 40 days for appearance of typical clinical signs of EAE (Table 1).

[4] = test system: EAE induced by MBP 85-99 in humanized mice carrying HLA DR-2 and TCR transgenes; assay: Suppression of EAE induced by MBP 85-99 in humanized mice; type: in vivo; settings: for Clinical score (severity of symptoms): 50 days
Description: Mouse strains. SJL/J (H-2^s) mice (8-12 weeks of age) were purchased from Jackson Laboratories (Bar Harbor, Me.) and were maintained in the animal facility at Harvard University according to the Guidelines of the Committee on Animals of Harvard University and the Committee on Care and Use of Laboratory Animal Resources, National Research Counsel (Department of Health and Human Services Publication 85-23, revised 1987).
Experimental animals were humanized mice carrying transgenes HLA DR-2 (DRA* 0101 and DRB1* 1501) and TCR from MS patient […], which is a V(D)J rearrangement of TCRα and TCRβ, amplified from clone Ob.1A12. Mice in each group were injected with MBP 85-99 (SEQ ID NO: 2) subcutaneously to induce EAE. […] Clinical symptoms were monitored over a course of 50 days on days indicated.

[5] = test system: H-2s-restricted PLP 139-151-specific T cell hybridoma hPLP/c4; settings: SJL/J splenocytes, PLP 139-151 24 μM, copolymer 28 μM (FIG. 2C)
[6] = test system: 2E12 T cell clone (MBP 84-102-specific hybridoma from HLA-DR-2-transgenic mice); assay: Antigen presentation assay, 2E12 T cell clone; type: cell-based, mouse; settings: L466 APC, MBP 85-99 4 μM (FIG. 1A)
Description: as §2

MS patients = settings: cited from earlier work
[7] = test system: Hy1B clone (MBP 84-102-specific TCR transfectant); assay: Antigen presentation assay, Hy1B T cell clone; type: cell-based; settings: MGAR APC, MBP 85-99 12.5 μM (FIG. 1C)
Description: as §2

[8] = Example 10: 50 μg PLP 139-151 + 500 μg copolymer
[9] = Example 10: 50 μg PLP 139-151 + 500 μg copolymer, listed as Copaxone®
[10] = SJL/J mice, 500 μg WSCH + 500 μg copolymer

Substance: Glatiramer acetate [Copaxone ®]
Inhibition of binding of biotinylated MBP 86-100 to HLA-DR-2 molecules (HLA-DR-2 molecules): inhibited most efficiently | Day of first attack ([1]; Example 6): 26 days | Day of peak of first attack ([1]; Example 6): 34 days | Mean maximal score ([1]; Example 6): 1.25 | Mortality ([1]; Example 6: 50 μg PLP 139-151 + 500 μg copolymer, 90 days): 12% | Mice with clinical signs of EAE out of group ([1]; Example 6: 50 μg PLP 139-151 + 500 μg copolymer, observed 90 days): two out of eight | Mean day of onset [1, 8]: 22.7 ± 7.1 days | Percent disease [1, 8]: 75% | Percent mortality [1, 8]: 6% | Maximum mean score [1, 8]: 2.6 ± 1.6 | Maximum mean score [1, 9]: 2.6 | Mean day of onset [1, 9]: 22 days | Incidence (mice with clinical signs of EAE / total immunized mice) [1]: 12/16 | Incidence (mice with clinical signs of EAE / total immunized mice) ([1]; listed as Copaxone®): 12 of 16 | Inhibition of proliferation of hPLP/1 hybridoma [2]: best inhibited | Incidence (mice with clinical signs of EAE / total immunized mice) [3]: 1/14 | Incidence (mice with clinical signs of EAE / total immunized mice) ([3]; listed as Copaxone®): One out of fourteen | Mean day of onset [3, 10]: 20.0 days | Percent disease [3, 10]: 7% | Percent mortality [3, 10]: 0% | Maximum mean score ([3]; SJL/J mice, 500 μg WSCH + 500 μg copolymer, clinical scale 1-5): 3.0 | Mean day of onset ([3]; SJL/J mice, 500 μg WSCH + 500 μg copolymer, listed as Copaxone®): 20 days | Effect on course of EAE induced by WSCH (in words) ([3]; co-immunization, 500 μg copolymer): suppressed EAE | Number of time points with symptoms ([4]; co-immunized): nine | Clinical score (severity of symptoms) ([4]; co-immunized on day 0 with 500 μg copolymer and 50 μg MBP 85-99): 2 to 3 | Number of time points with symptoms ([4]; pre-immunized): 14 time points | Stable level of symptoms (severity) ([4]; pre-immunized): greater than 1 | Clinical score (severity of symptoms) ([4]; pre-immunized two days prior to EAE induction): greater than 3 | Inhibition of hPLP/c4 hybridoma [5]: best inhibited | Inhibition of proliferation of the 2E12 T cell clone [6]: efficient | Reduction of frequency of relapse (MS patients): about 30% | Toxicity (MS patients; wide use): little or no toxicity | Inhibition of the Hy1B clone [7]: best inhibitor

Inhibition of binding of biotinylated MBP 86-100 to HLA-DR-2 molecules (HLA-DR-2 molecules): inhibited most efficiently
Substance: ENPVVHFFKNIVTPR [MBP 85-99]
